Data taken from patent US20170296460A1, “METHOD OF IMPROVING THE APPEARANCE OF PERIORBITAL DYSCHROMIA” (The Procter & Gamble Company, priority 2016, published 2017).

Test system: B16-F1 mouse melanoma cell line
Assay: B16 melanin synthesis inhibition assay
Assay type: cell-based
Settings: B16-F1 cells, OD 410 nm
Experimental: In this example, a commercially available B16-F1 mouse melanoma cell line from American Tissue Culture Collection, Virginia, USA was employed in a conventional melanin synthesis inhibition assay. The cell culture medium used in the assay is 500 mL of Dulbecco's Modified Eagle's Medium (DMEM), 50 mL Fetal Bovine Serum (FBS), and 5 mL of penicillin-streptomycin liquid. B16-F1 cells that are cultured in this medium and grown to greater than 90% confluency will synthesize melanin. While not intending to be bound by any theory, it is hypothesized that the melanin synthesis is stimulated by the culture medium and/or stress induced by growth to a high confluency. […] Equipment used in the assay include a CO2 incubator, such as a Forma Series Model 3110 by Therma Scientific, Massachusetts, USA; a hemocytometer, such as a Bright Line model by Hauser Scientific, Pennsylvania, USA; and a UV-Visible Spectrum Plate Reader, such as a SpectraMax250 from Molecular Devices, California, USA. […] Day 3: The cells from the T-150 flask are trypsinized, and the concentration of cells is determined using the hemacytometer. […] Read the 96 well plate using the UV-Vis Plate Reader at 410 nm to optically measure the amount of melanin produced between wells that are treated with the pumpkin seed extract and control wells that are not. […] The concentration of test agent needed to provide the IC 50 is recorded.

Concentration Needed for IC 50: 0.008 v/v
SMILES: Oc1ccc(OC2CCCCO2)cc1 (stereo not shown) [Deoxyarbutin]
